Measured values as given in patent US10087148B2, “Quinazolines as biogenic amine transport modulators” (THE UNITED STATES OF AMERICA AS REPRESENTED BY THE …, priority 2014, dated 2018).
“Also recorded” adds a separate entry of the source.

Legend:
Type in all cases: biochemical
[1] = biological target: norepinephrine transporter (NET) (Rattus norvegicus, UniProt Q63380); assay: [3H]norepinephrine (NE) uptake inhibition in rat brain synaptosomes; details: mean ± S.D.; n = 3
Protocol: Uptake inhibition assay for the norepinephrine transporter was conducted in rat brain synaptosomes as described elsewhere with minor modifications (Rothman et al., Synapse 39, 32-41 (2001)). Freshly removed whole brain minus cerebellum and caudate was homogenized in 10% ice-cold sucrose with 12 strokes of a hand-held Potter-Elvehjem homogenizer followed by centrifugation at 1000×g for 10 minutes. The supernatants were saved on ice and used immediately. Transporter activity at NET was assessed using 10 nM [^3H]norepinephrine. The assay buffer was Krebs-phosphate buffer containing 154.4 mM NaCl, 2.9 mM KCl, 1.1 mM CaCl2, 0.83 mM MgCl2, 5 mM glucose, 1 mg/mL ascorbic acid, and 50 μM pargyline. […] Uptake inhibition assays were conducted at 37° C. and were initiated by adding 100 μL of tissue to 900 μL assay buffer containing test drug and [^3H]norepinephrine. Test drugs were diluted in assay buffer containing 1 mg/mL bovine serum albumin. Nonspecific uptake was measured by incubating in the presence of 10 μM indatraline. The reactions were stopped after 10 minutes by rapid vacuum filtration with a cell harvester (BRANDEL) over GF/B filters (Whatman) presoaked in wash buffer maintained at 25° C. (10 mM Tris-HCl, pH 7.4/150 mM NaCl). Filters were rinsed with 6 mL wash buffer and retained tritium was quantified by a MicroBeta liquid scintillation counter (PerkinElmer) after overnight extraction in 0.6 mL of liquid scintillation cocktail (Cytoscint, ICN). The data from three experiments were pooled and fit to a dose-response curve equation (using Kaleidagraph), to yield an Emax and EC50 value.

[2] = biological target: serotonin transporter (SERT) (Rattus norvegicus (Rat), UniProt P31652); assay: [3H]serotonin (5-HT) uptake inhibition in rat brain synaptosomes; details: mean ± S.D.; n = 3
Protocol: Uptake inhibition assay for the serotonin transporter was conducted in rat brain synaptosomes as described elsewhere with minor modifications (Rothman et al., Synapse 39, 32-41 (2001)). Freshly removed whole brain minus cerebellum and caudate was homogenized in 10% ice-cold sucrose with 12 strokes of a hand-held Potter-Elvehjem homogenizer followed by centrifugation at 1000×g for 10 min. The supernatants were saved on ice and used immediately. Transporter activity at SERT was assessed using 5 nM [^3H]serotonin. The assay buffer was Krebs-phosphate buffer containing 154.4 mM NaCl, 2.9 mM KCl, 1.1 mM CaCl2, 0.83 mM MgCl2, 5 mM glucose, 1 mg/mL ascorbic acid, and 50 μM pargyline. […] Uptake inhibition assays were conducted at 25° C. and were initiated by adding 100 μL of tissue to 900 μL assay buffer containing test drug and [^3H]serotonin. Test drugs were diluted in assay buffer containing 1 mg/mL bovine serum albumin. Nonspecific uptake was measured by incubating in the presence of 10 μM indatraline. The reactions were stopped after 30 min by rapid vacuum filtration with a cell harvester (BRANDEL) over GF/B filters (Whatman) presoaked in wash buffer maintained at 25° C. (10 mM Tris-HCl, pH 7.4/150 mM NaCl). Filters were rinsed with 6 mL wash buffer and retained tritium was quantified by a MicroBeta liquid scintillation counter (PerkinElmer) after overnight extraction in 0.6 mL of liquid scintillation cocktail (Cytoscint, ICN). The data from three experiments were pooled and fit to a dose-response curve equation (using Kaleidagraph), to yield an Emax and EC50 value.

[3] = biological target: dopamine transporter (DAT) (Rattus norvegicus (Rat), UniProt P23977); assay: [3H]dopamine (DA) uptake inhibition in rat brain (caudate) synaptosomes; details: for DA Uptake Emax / EC50: rat caudate synaptosomes, 5 nM [3H]dopamine, mean ± SD; for One-Site Emax / Two-Site Emax-1 / Two-Site Emax-2: [3H]DA uptake; for One-Site Emax: one-component fit; for Two-Site Emax-1 / Two-Site Emax-2: two-component fit; for Two-Site Emax-1: component 1; for Two-Site Emax-2: component 2
Protocol: Uptake inhibition assay for the dopamine transporter was conducted in rat brain synaptosomes as described elsewhere with minor modifications (Rothman et al., Synapse 39, 32-41 (2001)). Freshly removed caudate was homogenized in 10% ice-cold sucrose with 12 strokes of a hand-held Potter-Elvehjem homogenizer followed by centrifugation at 1000×g for 10 min. The supernatants were saved on ice and used immediately. Transporter activity was assessed using 5 nM [^3H]dopamine. The assay buffer was Krebs-phosphate buffer containing 154.4 mM NaCl, 2.9 mM KCl, 1.1 mM CaCl2, 0.83 mM MgCl2, 5 mM glucose, 1 mg/mL ascorbic acid, and 50 μM pargyline. The selectivity of the uptake assay for DAT was optimized by including 100 nM citalopram and 100 nM desipramine as blockers of SERT and NET in the sucrose solution and assay buffer. Uptake inhibition assays were conducted at 25° C. and were initiated by adding 100 μl of tissue to 900 μL assay buffer containing test drug and [^3H]dopamine. Test drugs were diluted in assay buffer containing 1 mg/mL bovine serum albumin. Nonspecific uptake was measured by incubating in the presence of 10 μM indatraline. The reactions were stopped after 15 minutes by rapid vacuum filtration with a cell harvester (BRANDEL) over GF/B filters (Whatman) presoaked in wash buffer maintained at 25° C. (10 mM Tris-HCl, pH 7.4/150 mM NaCl). Filters were rinsed with 6 mL wash buffer and retained tritium was quantified by a MicroBeta liquid scintillation counter (PerkinElmer) after overnight extraction in 0.6 mL of liquid scintillation cocktail (Cytoscint, ICN). The data from three experiments were pooled and fit to a dose-response curve equation (using Kaleidagraph), to yield an Emax and EC50 value.
All of the test compounds were synthesized as described herein. Next, 8-point dose-response curves were generated for each compound (1-20,000 nM) in the [^3H]DA uptake assay. The data from three experiments were pooled and fit to a dose-response curve equation (using KaleidaGraph; Synergy Software, Reading, Pa.) to yield an Emax and IC50 value. […] Selected compounds were also tested for their ability to inhibit [^3H]WIN35428 binding to rat caudate DAT.

Sequence of dopamine transporter (DAT) (P23977 whole entry): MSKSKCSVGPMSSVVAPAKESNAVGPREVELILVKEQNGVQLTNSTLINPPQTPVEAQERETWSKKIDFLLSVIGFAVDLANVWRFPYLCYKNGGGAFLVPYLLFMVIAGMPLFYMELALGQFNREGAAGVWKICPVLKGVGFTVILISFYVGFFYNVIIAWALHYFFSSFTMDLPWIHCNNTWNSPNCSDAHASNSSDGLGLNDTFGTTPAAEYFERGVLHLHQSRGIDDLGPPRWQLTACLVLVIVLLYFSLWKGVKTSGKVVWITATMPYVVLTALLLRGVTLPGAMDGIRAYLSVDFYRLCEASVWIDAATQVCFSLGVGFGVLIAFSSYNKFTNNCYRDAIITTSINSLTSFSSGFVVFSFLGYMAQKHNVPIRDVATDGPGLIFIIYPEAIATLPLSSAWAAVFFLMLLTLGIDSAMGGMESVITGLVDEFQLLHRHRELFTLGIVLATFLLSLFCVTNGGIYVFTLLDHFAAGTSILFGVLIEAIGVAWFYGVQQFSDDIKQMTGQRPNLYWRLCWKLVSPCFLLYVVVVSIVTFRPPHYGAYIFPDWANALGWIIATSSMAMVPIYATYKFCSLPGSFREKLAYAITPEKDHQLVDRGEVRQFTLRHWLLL
Sequence of serotonin transporter (SERT) (P31652 whole entry): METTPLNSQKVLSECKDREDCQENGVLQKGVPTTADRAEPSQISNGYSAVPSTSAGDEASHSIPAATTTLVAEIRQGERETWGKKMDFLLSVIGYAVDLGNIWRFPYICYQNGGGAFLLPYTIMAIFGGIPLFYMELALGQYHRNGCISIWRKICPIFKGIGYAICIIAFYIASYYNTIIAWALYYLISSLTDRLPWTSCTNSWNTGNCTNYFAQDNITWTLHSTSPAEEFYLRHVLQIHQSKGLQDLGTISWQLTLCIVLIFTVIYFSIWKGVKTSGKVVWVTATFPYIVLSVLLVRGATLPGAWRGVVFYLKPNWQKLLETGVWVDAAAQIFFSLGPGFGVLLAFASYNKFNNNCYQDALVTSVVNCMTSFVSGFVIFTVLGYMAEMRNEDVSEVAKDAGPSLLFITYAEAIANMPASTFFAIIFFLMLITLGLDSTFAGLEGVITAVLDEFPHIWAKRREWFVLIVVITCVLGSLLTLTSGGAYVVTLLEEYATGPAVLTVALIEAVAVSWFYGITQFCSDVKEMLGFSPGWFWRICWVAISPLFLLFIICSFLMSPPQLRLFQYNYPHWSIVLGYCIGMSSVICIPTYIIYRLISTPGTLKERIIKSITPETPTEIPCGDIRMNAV
Sequence of norepinephrine transporter (NET) (Q63380 1-617): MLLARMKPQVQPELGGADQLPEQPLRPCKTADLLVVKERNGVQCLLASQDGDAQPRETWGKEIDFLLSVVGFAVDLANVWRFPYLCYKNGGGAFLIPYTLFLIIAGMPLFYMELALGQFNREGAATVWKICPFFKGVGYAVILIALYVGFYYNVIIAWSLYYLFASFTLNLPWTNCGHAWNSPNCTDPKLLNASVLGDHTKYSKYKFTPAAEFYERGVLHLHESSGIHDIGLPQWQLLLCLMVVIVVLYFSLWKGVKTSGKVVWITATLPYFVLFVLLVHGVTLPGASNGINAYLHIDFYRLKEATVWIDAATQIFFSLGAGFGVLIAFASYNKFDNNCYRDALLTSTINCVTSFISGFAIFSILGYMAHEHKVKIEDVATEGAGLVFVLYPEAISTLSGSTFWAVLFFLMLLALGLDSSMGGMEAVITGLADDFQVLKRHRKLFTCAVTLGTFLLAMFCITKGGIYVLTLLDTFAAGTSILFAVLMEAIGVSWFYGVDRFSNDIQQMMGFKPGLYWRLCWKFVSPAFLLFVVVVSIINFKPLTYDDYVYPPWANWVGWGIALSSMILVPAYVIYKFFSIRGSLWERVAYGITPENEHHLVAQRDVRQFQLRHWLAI

Compound | DA Uptake Emax [3] [% I] | EC50 [3] [nM] | other results
COC(=O)[C@H]1[C@@H](OC(=O)c2ccccc2)C[C@@H]2CC[C@H]1N2C [Cocaine, reference compound] | – | – | NET Uptake Emax [1]: 102 ± 2%; SERT Uptake Emax [2]: 98 ± 2%
CS(=O)(=O)Nc1ccc(-c2nc(NCC(c3ccccn3)c3ccc[nH]3)c3ccccc3n2)cc1 (stereo not shown) [Compound 32, N-(4-(4-((2-(pyridin-2-yl)-2-(1H-pyrrol-2-yl)ethyl)amino)quinazolin-2-yl)phenyl)methanesulfonamide] | 73 ± 3 | 379 ± 80 | –
CN(C)c1ccc(-c2nc(NCC(c3ccccn3)c3ccc[nH]3)c3ccccc3n2)cc1 (stereo not shown) [Compound 33, 2-(4-(dimethylamino)phenyl)-N-(2-(pyridin-2-yl)-2-(1H-pyrrol-2-yl)ethyl)quinazolin-4-amine] | 89 ± 4 | 65 ± 18 | –
CN(C)c1ccc(-c2nc(NCC(c3ccncc3)c3ccncc3)c3ccccc3n2)cc1 [Compound 34, N-(2,2-di(pyridin-4-yl)ethyl)-2-(4-(dimethylamino)phenyl)quinazolin-4-amine] | 78 ± 3 | 21 ± 5 | –
CS(=O)(=O)Nc1ccc(-c2nc(NCC(c3ccncc3)c3ccncc3)c3ccccc3n2)cc1 [Compound 35, N-(4-(4-((2,2-di(pyridin-4-yl)ethyl)amino)quinazolin-2-yl)phenyl)methanesulfonamide] | 70 ± 2 | 47 ± 10 | –
CN(C)c1ccc(-c2nc(NCCc3ccccc3)c3ccccc3n2)cc1 [Compound 36, 2-(4-(dimethylamino)phenyl)-N-phenethylquinazolin-4-amine] | 100 ± 1 | 156 ± 12 | Efficacy of [3H]DA (DAT) uptake inhibition, in words [3]: fully inhibits; also recorded: full-efficacy; One-Site Emax [3]: 100 ± 1.5 % I; Two-Site Emax-1 [3]: 76 ± 54 % I; Two-Site Emax-2 [3]: 27 ± 53 % I
CS(=O)(=O)Nc1ccc(-c2nc(NCCc3ccccc3)c3ccccc3n2)cc1 [Compound 37, N-(4-(4-(phenethylamino)quinazolin-2-yl)phenyl)methanesulfonamide] | 86 ± 6 | 159 ± 54 | –
CN(C)c1ccc(-c2nc(NCC(C)(c3ccccc3)c3ccccc3)c3ccccc3n2)cc1 [Compound 38, 2-(4-(dimethylamino)phenyl)-N-(2,2-diphenylpropyl)quinazolin-4-amine] | 68 ± 3 | 15 ± 4 | –
CC(CNc1nc(-c2ccc(NS(C)(=O)=O)cc2)nc2ccccc12)(c1ccccc1)c1ccccc1 [Compound 39, N-(4-(4-((2,2-diphenylpropyl)amino)quinazolin-2-yl)phenyl)methanesulfonamide] | 67 ± 2 | 16 ± 3 | –
CN(C)c1ccc(-c2nc(NC(Cc3ccccc3)c3ccccc3)c3ccccc3n2)cc1 (stereo not shown) [Compound 40, 2-(4-(dimethylamino)phenyl)-N-(1,2-diphenylethyl)quinazolin-4-amine] | 72 ± 2 | 40 ± 8 | –
CS(=O)(=O)Nc1ccc(-c2nc(NC(Cc3ccccc3)c3ccccc3)c3ccccc3n2)cc1 (stereo not shown) [Compound 41, N-(4-(4-((1,2-diphenylethyl)amino)quinazolin-2-yl)phenyl)methanesulfonamide] | 69 ± 3 | 50 ± 14 | –
CS(=O)(=O)Nc1ccc(-c2nc(NC(CCc3ccccc3)c3ccccc3)c3ccccc3n2)cc1 (stereo not shown) [Compound 42, N-(4-(4-((1,3-diphenylpropyl)amino)quinazolin-2-yl)phenyl)methanesulfonamide] | 72 ± 2 | 71 ± 11 | –
CN(C)c1ccc(-c2nc(NC(CCc3ccccc3)c3ccccc3)c3ccccc3n2)cc1 (stereo not shown) [Compound 43, 2-(4-(dimethylamino)phenyl)-N-(1,3-diphenylpropyl)quinazolin-4-amine] | 70 ± 4 | 75 ± 22 | –
CC(C)C(CNc1nc(-c2ccc(N(C)C)cc2)nc2ccccc12)c1ccccc1 (stereo not shown) [Compound 44, 2-(4-(dimethylamino)phenyl)-N-(3-methyl-2-phenylbutyl)quinazolin-4-amine] | 84 ± 5 | 30 ± 10 | –
CC(C)C(CNc1nc(-c2ccc(NS(C)(=O)=O)cc2)nc2ccccc12)c1ccccc1 (stereo not shown) [Compound 45, N-(4-(4-((3-methyl-2-phenylbutyl)amino)quinazolin-2-yl)phenyl)methanesulfonamide] | 78 ± 4 | 20 ± 6 | –
CCN(CC)C(=O)[C@]1(c2ccccc2)C[C@@H]1CNc1nc(-c2ccc(N(C)C)cc2)nc2ccccc12 [Compound 46, (1R,2S)-2-(((2-(4-(dimethylamino)phenyl)quinazolin-4-yl)amino)methyl)-N,N-diethyl-1-phenylcyclopropanecarboxamide] | 93 ± 1 | 243 ± 18 | –
Cc1cc(NS(C)(=O)=O)ccc1-c1nc(NCC(c2ccncc2)c2ccncc2)c2ccccc2n1 [Compound 47, N-(4-(4-((2,2-di(pyridin-4-yl)ethyl)amino)quinazolin-2-yl)-3-methylphenyl)methanesulfonamide] | 67 ± 4 | 84 ± 25 | –
CN(C)c1ccc(-c2nc(NCC(Oc3ccccc3)c3ccccc3)c3ccccc3n2)cc1 (stereo not shown) [Compound 48, 2-(4-(dimethylamino)phenyl)-N-(2-phenoxy-2-phenylethyl)quinazolin-4-amine] | 72 ± 3 | 42 ± 10 | –
CS(=O)(=O)Nc1ccc(-c2nc(NCC(Oc3ccccc3)c3ccccc3)c3ccccc3n2)cc1 (stereo not shown) [Compound 49, N-(4-(4-((2-phenoxy-2-phenylethyl)amino)quinazolin-2-yl)phenyl)methanesulfonamide] | 67 ± 2 | 30 ± 5 | –
c1ccc(C(CNc2nc(-c3ccc4c(c3)CCN4)nc3ccccc23)c2ccccc2)cc1 [SRI-29986] | – | – | Efficacy of [3H]DA (DAT) uptake inhibition, in words [3]: partial inhibitors; One-Site Emax [3]: 75 ± 3 % I; Two-Site Emax-1 [3]: 37 × 10^8 ± 2.7 × 10^8 % I; Two-Site Emax-2 [3]: 37 × 10^8 ± 0.7 × 10^8 % I
